Here are results for nine compounds from patent US20260275307A1, “PRIME EDITING SYSTEM BASED ON PERV REVERSE TRANSCRIPTASE” (Jiangxi Agricultural University, priority 2023, published 2026).

Experiment [1] relates to fluorescent reporter PFF cell line. In words: Small molecules: effect on PE editing efficiency in fluorescent reporter PFF cell line. Type of experiment: cell-based, pig. As to conditions: 20 μM RS-1, 200 ng/mL Nocodazole, FIG. 18A; for PE efficiency: single molecule added to medium after transfection: 40 μM L755507, 0.1 μM Brefeldin A, 10 nM TSA; for increase of editing efficiency: single molecule: 10 nM TSA. How it is done: From this, it can be expected that some small molecules may also improve the editing efficiency of PE. […] Cells were treated by adding the corresponding concentrations of small molecules or combinations of small molecules, respectively, to the medium after transfection.

The subject of experiment [2] is primary PFF cells. The experiment in a line: Editing efficiency of PE editors in primary PFF cells (high throughput sequencing of target sites). In kind it is cell-based, pig. How it is done: The sows for 31 days gestation were sacrificed and dissected, the whole uterus was taken out, the fetus and the fetal membrane were taken out one by one, and transferred into a DMEM solution containing 5% (v/v) penicillin and streptomycin (v/v; Gibco: 15140-122) for storage in a refrigerator at 4° C. In a clean bench, the isolated fetus was transferred one by one to a sterile 10 cm culture dish, and the head, viscera, limbs and tail of the fetus were removed with sterile forceps and scissors; the remaining part of the fetus was cleaned with a PBS solution containing 5% (v/v) penicillin and streptomycin (Gibco: 15140-122)), and then the remaining part of the fetus was cut to about 1 mm^3 within 10-15 minutes, and 5 ml of collagenase working solution was added to the cut tissue; the tip of 1 ml of sterile pipettor was cut off with scissors, and the cut tissue pieces were transferred to a 15 ml sterile centrifuge tube, sealed and placed in a shaker at 37° C. for incubation for 2 hours. After that, the centrifuge tube was centrifuged at 1000 rpm for 5 minutes, the upper collagenase working solution was removed, and the incubated tissues were evenly transferred into two T75 culture dishes and cultured in a 37° C., 5% CO2 sterile incubator. […]

The test system of experiment [3] is HEK293T cells. The experiment in a line: Editing efficiency of PE editors in 293T cells (puromycin screening, sequencing). Type of experiment: cell-based. To be noted: pPE editors with 4 point mutations, FIG. 9. How it is done: (§1) Canine fetal fibroblasts (DFF) were isolated from a female canine fetus on 30 days of gestation, and the specific establishment method was the same as that of PFF; goat fetal fibroblasts (SFF) were given by Yunnan Agriculture University Weijiang Laboratory, and the cells were isolated from a small tailed han sheep fetus; 293T cells were purchased from the Cell Bank of the Type Culture Collection Committee of Chinese Academy. All three cells were cultured in high-glucose DMEM (Gibco, USA) culture medium containing 12% (v/v) fetal bovine serum (Excell, China) and 1% (v/v) penicillin-streptomycin (BI, China) at 37° C. in a 5% CO2 incubator.
293T cells: cells were inoculated into a 24-well culture dish 1-2 days before cell transfection, and when the cell confluency reached 50-60%, the cells were transfected with Lipofectamine 3000 reagent (Invitrogen, USA), and each transfection reaction included 1 μg PE editor, 0.5 μg pegRNA, 0.5 μg ngRNA and 1 μL Lipofectamine 3000 reagent.
293T cells: after transfection, 3 μg/mL puromycin (Sigma, Japan) was added for screening for 3 days, and then the culture medium was changed and cultured for another 2 days.
(§2) The method is same with the detection of editing efficiency of PFF.

Experiment [4] has as its system sheep fetal fibroblasts (SFF). The experiment in a line: Editing efficiency of PE editors in sheep fetal fibroblasts. As to conditions: pPE editors with 4 point mutations; FIG. 9. In kind it is cell-based. Here is the method: as §1
(§3) DFF and SFF: The method is similar to the transfection method of PFF, and the difference lies in that when DFF and SFF were transformed, the cells were shocked by using the EN-150 program, then again by using the CA-113 program.
(§4) SFF and DFF cells: 3 μg/mL puromycin (Sigma, Japan) was added 48 hours after electrotransformation for screening for 2 days, and then the culture medium was changed for further culture for 2 days.
as §2

Experiment [5] deals with dog fetal fibroblasts (DFF). In words: Editing efficiency of PE editors in dog fetal fibroblasts. Type of experiment: cell-based. To be noted: pPE editors with 4 point mutations; canine fetal fibroblasts; FIG. 9. Here is the method:
as §1, §3, §4, §2

Experiment [6] relates to primary PFFs. In words: Small molecules: effect on PE editing efficiency in primary PFFs. As to conditions: primary PFF; FIG. 18C. Type of experiment: cell-based, pig. How it is done: Cells were treated by adding the corresponding concentrations of small molecules or combinations of small molecules, respectively, to the medium after transfection.
The effect of Rs-1, Nocodazole, TSA, and the combination of Rs-1+TSA and Rs-1+Nocodazole in primary PFFs was then verified.

Experiment [7] relates to immortalized BFP fluorescence reporter PFF cell line. The experiment in a line: Editing efficiency of PE editors in immortalized BFP fluorescence reporter PFF cell line (flow cytometry, GFP ratio). Type of experiment: cell-based, Bama pig. To be noted: epPE editors vs PE2c-Puro and each other, FIG. 3. How it is done: The immortalized BFP fluorescence reporter PFF cell line was cultured in high glucose DMEM (Gibco, USA) medium containing 12% fetal bovine serum ((v/v), Excell, China) and 1% penicillin ((v/v), BI, China). The cell line was constructed by the laboratory, firstly, the SV40 large T antigen was site-directed knocked into the H11 safe harbor site of the primary PFFs of Bama pig, and then the BFP vector was site-directed integrated into the Rosa26 safe harbor site of immortalized PFF by the CRISPR Cas9 technology, and finally the BFP fluorescence reporter PFF cell line was obtained by serial passage. […]
After the cells were digested with 0.125% trypsin (Gibco, USA), the cells were collected into a 1.5 mL EP tube, centrifuged at 200×g for 5 minutes, the supernatant was discarded, 50 μL of 1×PBS buffer was added to resuspend the cells, and the cells were detected by using a flow cytometer (BD, USA), the wild-type fluorescence reporter cells were used as the background, and GFP-positive cells were circled by using two channels of FITC+PE, and the GFP ratio was the editing efficiency.

Experiment [8] deals with 293T cells co-transfected with fluorescent reporter gene vector. In words: 293T cell fluorescence reporter gene co-transfection experiment. As to conditions: Bmx-PERV-RT with 6 mutation sites and combinations; 3 editing forms; FIG. 12. Type of experiment: cell-based. Here is the method:
1×10^5 cells were inoculated into a 24-well culture dish 17-24 hours before cell transfection, and when the cell confluence reached 50-80%, transfection was performed using H4000 reagent (Ingran, China), and each transfection reaction included 200 ng PE editor, 100 ng pegRNA, 100 ng ngRNA, 10 ng fluorescent reporter gene vector and 0.5 μL H4000 reagent. The cells were collected 48 hours after transfection, and detected by flow cytometry (BD, USA), with wild-type fluorescence reporter cells as background, and GFP positive cells were circled with FITC+PE double channel, with GFP ratio as editing efficiency.
A general note: In a reporter assay the amount or activity of a reporter protein is the signal.

On to `C[C@H]1CCC/C=C/[C@@H]2C[C@H](O)C[C@H]2[C@H](O)/C=C/C(=O)O1` [BrefeldinA, Brefeldin A], for which, in experiment [1], the PE efficiency result is “significantly (P<0.05 or P<0.01) improved PE efficiency”.
“bmx-pPE-C-M4-puro: pPE editor, Bama pig type C PERV-RT with D199N, T305K, W312F, L602W; SEQ ID NO: 31”: the editing efficiency entry in experiment [2] (pPE editors with 4 point mutations in PFF, FIG. 8) is recorded as “overall higher efficiency”; in experiment [3] it was “higher efficiency at most sites”; in experiment [4] it was “higher efficiency at most sites”; in experiment [5] it was “higher efficiency at most sites”.
For the compound `O=C(Nc1ccc(Br)cc1)c1ccc(Br)c(S(=O)(=O)NCc2ccccc2)c1` [Rs-1], in experiment [1], the PE efficiency entry is “significantly (P<0.05 or P<0.01) improved PE efficiency” and the “increase of editing efficiency” value was 32.7%. For the same compound, in experiment [6], the “improvement of overall editing efficiency for the 6 sites” value (shortened to “improvement”) turned out to be 20.8%.
Turning to “epPE-AC-M4Δ*-Puro: epPE-AC-M3Δ-Puro with RT amino acids 329-332 mutated from EKGE to PGTL; SEQ ID NO: 23”, the “editing efficiency (GFP ratio)” value in experiment [7] is “higher than that of epPE-B-M4Δ*-Puro”.
As for `COC(=O)Nc1nc2ccc(C(=O)c3cccs3)cc2[nH]1` [Nocodazole], in experiment [1], the PE efficiency result is on record as “significantly (P<0.05 or P<0.01) improved PE efficiency” and the “increase of editing efficiency” value came out at 66.9%. In addition, the “improvement” value in experiment [6] amounted to 36.4%.
Take “M5.1: pPE editor, PERV-RT variant carrying 5 amino acid mutations (D199N, T305K, W312F, L602W, V222A); SEQ ID NO: 45”: the “efficiency (GFP ratio)” value in experiment [8] is reported as “overall optimal efficiency in 3 editing forms”.
Turning to “epPE-AC-M3Δ-Puro: PE editor: nCas9 fused to PERV-AC-NC and PERV-AC-RT (ΔRNase H) with D199N, T305K, W312F; SEQ ID NO: 22”, the “editing efficiency (GFP ratio)” value in experiment [7] is “higher than that of epPE-B-M3Δ-Puro”. Further, in experiment [2] (6 editing sites tested in the primary PFF, FIG. 4), the average editing efficiency result was “higher than that of epPE-B-M3Δ-Puro”.
Regarding `CCCCCCNC(=O)Nc1ccc(S(=O)(=O)Nc2ccc(CCNC[C@H](O)COc3ccc(O)cc3)cc2)cc1` [L755507], the PE efficiency result in experiment [1] is reported as “significantly (P<0.05 or P<0.01) improved PE efficiency”.
`CC(/C=C/C(=O)NO)=C\[C@@H](C)C(=O)c1ccc(N(C)C)cc1` [TSA, Trichostatin A]: in experiment [1], the PE efficiency entry is given as “significantly (P<0.05 or P<0.01) improved PE efficiency” and the “increase of editing efficiency” value is listed as 34.4%. In addition, the “improvement” value in experiment [6] is reported as 14.3%.
